Test results reported in ChEMBL document CHEMBL3039007, “Structure-based identification of OATP1B1/3 inhibitors” (Mol Pharmacol, 2013).

What was measured:
[1] = biological target: T1, Solute carrier organic anion transporter family member 1B1 (Homo sapiens, UniProt Q9Y6L6); conditions: chinese hamster, cho, 10 µM
T1 sequence (Q9Y6L6 whole entry): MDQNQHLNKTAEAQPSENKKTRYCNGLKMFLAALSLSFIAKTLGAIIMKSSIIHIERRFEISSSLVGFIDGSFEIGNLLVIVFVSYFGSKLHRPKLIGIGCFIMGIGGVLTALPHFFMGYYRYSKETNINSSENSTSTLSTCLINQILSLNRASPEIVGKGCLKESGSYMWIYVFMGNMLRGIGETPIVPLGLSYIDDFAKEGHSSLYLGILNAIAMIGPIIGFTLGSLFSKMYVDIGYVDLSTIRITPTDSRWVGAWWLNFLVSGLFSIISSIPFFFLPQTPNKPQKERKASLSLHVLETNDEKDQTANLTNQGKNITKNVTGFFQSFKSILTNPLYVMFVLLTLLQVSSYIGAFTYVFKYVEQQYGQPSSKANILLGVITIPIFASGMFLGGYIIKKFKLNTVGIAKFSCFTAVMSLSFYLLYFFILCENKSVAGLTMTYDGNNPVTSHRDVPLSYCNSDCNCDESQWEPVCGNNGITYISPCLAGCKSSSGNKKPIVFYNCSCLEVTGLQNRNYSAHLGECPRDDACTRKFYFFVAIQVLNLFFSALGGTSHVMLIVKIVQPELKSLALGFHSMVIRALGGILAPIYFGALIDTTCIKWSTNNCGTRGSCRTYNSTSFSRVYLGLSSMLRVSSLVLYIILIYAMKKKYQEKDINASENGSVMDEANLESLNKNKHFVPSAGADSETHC

[2] = biological target: T2, Solute carrier organic anion transporter family member 1B3 (Homo sapiens, UniProt Q9NPD5); conditions: chinese hamster, cho, 10 µM
T2 sequence (Q9NPD5 whole entry): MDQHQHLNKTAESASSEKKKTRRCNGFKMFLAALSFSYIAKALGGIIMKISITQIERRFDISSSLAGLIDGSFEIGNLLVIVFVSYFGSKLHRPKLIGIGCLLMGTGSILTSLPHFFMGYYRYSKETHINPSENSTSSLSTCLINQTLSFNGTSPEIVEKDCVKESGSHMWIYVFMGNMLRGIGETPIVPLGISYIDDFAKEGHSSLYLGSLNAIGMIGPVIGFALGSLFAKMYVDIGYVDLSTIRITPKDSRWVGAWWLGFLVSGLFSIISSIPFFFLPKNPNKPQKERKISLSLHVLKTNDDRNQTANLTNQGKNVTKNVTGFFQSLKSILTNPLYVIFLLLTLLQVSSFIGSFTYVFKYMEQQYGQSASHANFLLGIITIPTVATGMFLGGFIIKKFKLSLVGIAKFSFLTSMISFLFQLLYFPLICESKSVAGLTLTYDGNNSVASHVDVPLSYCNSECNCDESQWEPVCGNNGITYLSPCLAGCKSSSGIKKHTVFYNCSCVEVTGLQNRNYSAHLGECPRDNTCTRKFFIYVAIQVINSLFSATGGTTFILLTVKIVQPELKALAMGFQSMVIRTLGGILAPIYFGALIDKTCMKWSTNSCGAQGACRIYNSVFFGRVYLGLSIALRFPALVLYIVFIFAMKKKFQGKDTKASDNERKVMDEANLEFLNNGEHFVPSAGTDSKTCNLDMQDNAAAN

| Compound | residual activity [1] | residual activity [2] |
| --- | --- | --- |
| CC(C)Nc1nc(Cl)nc(NC(C)C)n1 [PROPAZINE] | 110.4% | 91.55% |
| COc1ccc(C(=O)O)c(O)c1OC [2-HYDROXY-3,4-DIMETHOXYBENZOIC ACID] | 82.39% | 82.78% |
| O=c1ccc2cc(O)c(O)cc2o1 [ESCULETIN] | 111.1% | 105.3% |
| CO[C@@]1(NC(=O)C(C(=O)[O-])c2ccc(O)cc2)C(=O)N2C(C(=O)[O-])=C(CSc3nnnn3C)CO[C@@H]21.[Na+].[Na+] (stereo partly specified) [MOXALACTAM DISODIUM] | 87.94% | 92.91% |
| COc1cc(C)c(C(=O)O)c(O)c1 [EVERNINIC ACID] | 82.73% | 90.88% |
| O=C1C=C2CC3(O)COc4c(ccc(O)c4O)C3=C2C=C1O (stereo unspecified) [HEMATEIN] | 65.79% | 73.22% |
| C=C1[C@H]2CC[C@@]3(C)[C@H](c4ccoc4)OC(=O)C[C@]13O[C@H]1C[C@H](O)C(C)(C)[C@H](CC(=O)OC)[C@]12C [3-DEOXY-3beta-HYDROXYANGOLENSIC ACID METHYL ESTER] | 50.95% | 59.13% |
| C[C@H]1[C@H](C)CC[C@@]23CC[C@]4(C)[C@@](C=C[C@@H]5[C@@]6(C)CC[C@H](O)C(C)(C)[C@@H]6CC[C@]54C)(OC2=O)[C@H]13 | 114.4% | 98.51% |
| Cc1cc(=O)c2c(O)c(C)c(O)cc2o1 [EUGENITOL] | 77.61% | 88.28% |
| O=C/C=C/c1ccc(O)cc1 [p-HYDROXYCINNAMALDEHYDE] | 139.6% | 70.79% |
| C[C@]12CCC3c4ccc(OC(=O)c5ccccc5)cc4CCC3C1CCC2=O (stereo partly specified) [ESTRONE BENZOATE] | 121% | 95.01% |
| Nc1nc2c(ncn2[C@H]2C[C@H](O)[C@@H](CO)O2)c(=O)[nH]1 [DEOXYGUANOSINE] | 85.51% | 90.97% |
| CC[C@H]1CN2CC[C@H]1C[C@@H]2[C@@H](O)c1ccnc2ccc(OC)cc12 [HYDROQUINIDINE] | 77.48% | 96.11% |
| CCCCC1=NC2(CCCC2)C(=O)N1Cc1ccc(-c2ccccc2-c2nnn[nH]2)cc1 [IRBESARTAN] | 76.05% | 47.18% |
| CCCC(C)(COC(N)=O)COC(=O)NC(C)C (stereo unspecified) [CARISOPRODOL] | 106% | 103.8% |
| CO[C@H]1C[C@H](O[C@H]2[C@H](C)[C@@H](O[C@@H]3O[C@H](C)C[C@H](N(C)C)[C@H]3O)[C@@H](C)C[C@@]3(CO3)C(=O)[C@H](C)[C@@H](O)[C@@H](C)[C@@H](C)OC(=O)[C@@H]2C)O[C@@H](C)[C@@H]1O.O=P(O)(O)O [OLEANDOMYCIN PHOSPHATE] | 102.8% | 105.8% |
| O=c1[nH]c2ccccc2n1C1CCN(CCCC(c2ccc(F)cc2)c2ccc(F)cc2)CC1 [PIMOZIDE] | 167.9% | 121.7% |
| COC(=O)C[C@H]1C(C)(C)[C@@H](O)[C@@H]2CC3=C4C=C(OC)O[C@@H](c5ccoc5)[C@]4(C)CCC3[C@@]1(C)C2=O (stereo partly drawn) [3-DEOXO-3beta-HYDROXYMEXICANOLIDE 16-ENOL ETHER] | 27.18% | 106.5% |
| CN1CCN(C2=Nc3cc(Cl)ccc3Nc3ccccc32)CC1 [CLOZAPINE] | 86.29% | 93.38% |
| NNC(=O)c1ccncc1 [ISONIAZID] | 88.4% | 98.94% |
| COc1ccc([C@@H]2CC(=O)c3c(O)cc(O)cc3O2)cc1O [HESPERETIN] | 98.42% | 113.3% |
| CC(C)(C)NCC(O)c1cc(O)cc(O)c1.O=S(=O)(O)O (stereo unspecified) | 89.3% | 94.09% |
| COc1c(-c2coc3cc4c(cc3c2=O)CC(O)C(C)(C)O4)ccc2c1C=CC(C)(C)O2 (stereo unspecified) [MUNDULONE] | 31.23% | 45.15% |
